Assay results as given in the supplement of paper PMC10307832.

How the values were obtained:
Test in all cases: relative viability (nuclei count vs DMSO), 5 days (fraction); higher = more cells survive
Dabrafenib + Phenformin = compound: CC(C)(C)c1nc(-c2cccc(NS(=O)(=O)c3c(F)cccc3F)c2F)c(-c2ccnc(N)n2)s1 [Dabrafenib] + N=C(N)NC(=N)NCCc1ccccc1 [Phenformin] (partner 250 µM)
Method in brief: (§1)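 Lung cancer cell lines in 1536-well plates were dosed by pin tool the day after seeding, either with one drug alone or with a fixed anchor-drug dose plus five library-drug doses (not always all listed) in √10 steps. After 5 days, cells were fixed and their nuclei stained in one step (final 0.05% Triton X-100, 1% formaldehyde, 1 ug/ml Hoechst), then counted on 4× images. Relative viability is the nuclei count in treated wells divided by that in vehicle wells. Values are medians of duplicate plates.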

Dabrafenib + Vorinostat = compound: CC(C)(C)c1nc(-c2cccc(NS(=O)(=O)c3c(F)cccc3F)c2F)c(-c2ccnc(N)n2)s1 [Dabrafenib] + O=C(CCCCCCC(=O)Nc1ccccc1)NO [Vorinostat] (partner 1 µM)
Method in brief: as §1

VX-702 + Lapatinib = compound: NC(=O)c1ccc(N(C(N)=O)c2c(F)cccc2F)nc1-c1ccc(F)cc1F [VX-702] + CS(=O)(=O)CCNCc1ccc(-c2ccc3ncnc(Nc4ccc(OCc5cccc(F)c5)c(Cl)c4)c3c2)o1 [Lapatinib] (partner 2 µM)
Method in brief: as §1

VX-702 + Vorinostat = compound: NC(=O)c1ccc(N(C(N)=O)c2c(F)cccc2F)nc1-c1ccc(F)cc1F [VX-702] + O=C(CCCCCCC(=O)Nc1ccccc1)NO [Vorinostat] (partner 1 µM)
Method in brief: as §1

Cell Line | relative viability (Dabrafenib + Phenformin; first compound 0.003 µM) | relative viability (Dabrafenib + Phenformin; first compound 0.009487 µM) | relative viability (Dabrafenib + Phenformin; first compound 0.03 µM) | relative viability (Dabrafenib + Phenformin; first compound 0.09487 µM) | relative viability (Dabrafenib + Phenformin; first compound 0.3 µM) | relative viability (Dabrafenib + Vorinostat; first compound 0.003 µM) | relative viability (Dabrafenib + Vorinostat; first compound 0.009487 µM) | relative viability (Dabrafenib + Vorinostat; first compound 0.03 µM) | relative viability (Dabrafenib + Vorinostat; first compound 0.09487 µM) | relative viability (Dabrafenib + Vorinostat; first compound 0.3 µM) | relative viability (VX-702 + Lapatinib; first compound 0.02 µM) | relative viability (VX-702 + Lapatinib; first compound 0.2 µM) | relative viability (VX-702 + Lapatinib; first compound 0.6325 µM) | relative viability (VX-702 + Lapatinib; first compound 2 µM) | relative viability (VX-702 + Vorinostat; first compound 0.02 µM) | relative viability (VX-702 + Vorinostat; first compound 0.2 µM) | relative viability (VX-702 + Vorinostat; first compound 0.6325 µM) | relative viability (VX-702 + Vorinostat; first compound 2 µM)
NCI-H2170 | 0.4 | 0.367 | 0.385 | 0.384 | 0.421 | 0.777 | 0.798 | 0.703 | 0.647 | 0.732 | 0.278 | 0.284 | 0.273 | 0.299 | 0.967 | 0.734 | 0.842 | 0.874
NCI-H2347 |  | 0.461 | 0.229 | 0.382 | 0.352 |  | 0.603 | 0.385 | 0.551 | 0.591 | 0.996 | 0.813 | 0.891 | 0.902 | 0.561 | 0.594 | 0.454 | 0.591
NCI-H1437 | 0.2 | 0.3 | 0.259 | 0.3 | 0.4 | 0.839 | 0.813 | 0.907 | 0.802 | 0.872 | 0.779 | 0.753 | 0.972 | 0.959 | 0.904 | 0.827 | 0.863 | 1.05
CAL-12T | 0.584 | 0.51 | 0.601 | 0.572 | 0.677 | 1.06 | 0.581 | 0.804 | 0.679 | 0.795 | 0.61 | 0.603 | 0.611 | 0.664 | 0.688 | 0.744 | 0.725 | 1.04
NCI-H1651 | 0.35 | 0.352 | 0.293 | 0.353 | 0.347 | 0.567 | 0.533 | 0.573 | 0.419 | 0.544 | 1.04 | 0.929 | 0.847 | 0.963 | 0.536 | 0.558 | 0.53 | 0.586
RERF-LC-KJ | 0.432 | 0.435 | 0.43 | 0.447 | 0.546 | 0.745 | 0.779 | 0.706 | 0.618 | 0.789 | 0.891 | 0.801 | 0.888 | 0.933 | 0.693 | 0.686 | 0.716 | 0.694
EKVX | 0.147 | 0.227 | 0.187 | 0.196 | 0.236 |  | 0.862 | 0.716 | 0.608 | 0.806 | 0.215 | 0.22 | 0.226 | 0.127 | 0.823 | 0.671 | 0.676 | 0.696
EMC-BAC-2 | 0.518 | 0.563 | 0.364 | 0.418 | 0.548 |  | 0.459 | 0.324 | 0.281 | 0.328 | 0.924 | 0.947 | 0.906 | 0.883 | 0.477 | 0.427 | 0.496 | 0.427
PC-3 [JPC-3] | 0.405 | 0.491 | 0.465 | 0.441 | 0.476 |  | 0.981 | 0.713 | 0.771 | 1.12 | 0.468 | 0.461 | 0.442 | 0.414 | 0.929 | 0.773 | 0.908 | 0.886
HCC-78 |  | 0.866 | 0.704 | 0.614 | 0.667 |  | 0.507 | 0.426 | 0.511 | 0.616 | 0.871 | 0.456 | 0.603 | 0.98 | 0.393 | 0.486 | 0.427 | 0.543
NCI-H647 | 0.129 | 0.521 | 0.418 | 0.486 | 0.458 | 0.814 | 0.529 | 0.445 | 0.401 | 0.524 | 1.15 | 0.935 | 1.24 | 1.25 | 0.563 | 0.499 | 0.304 | 0.897
NCI-H1666 | 0.483 | 0.554 | 0.576 | 0.583 | 0.68 | 1.05 | 0.937 | 1.19 | 0.972 | 1.15 | 0.828 | 0.583 | 0.711 | 0.438 | 1.07 | 0.989 | 0.993 | 0.979
NCI-H3122 | 0.32 | 0.349 | 0.39 | 0.369 | 0.37 | 0.978 | 0.966 | 0.916 | 0.991 | 1.02 | 1.07 | 0.977 | 1.04 | 1.03 | 1.36 | 1.03 | 1.22 | 1.1
NCI-H1623 |  | 0.611 | 0.572 | 0.602 | 0.682 |  |  |  |  |  |  |  |  |  |  |  |  | 
Calu-6 |  |  |  |  |  |  |  |  |  |  | 1.07 | 1.1 | 1.13 | 1.25 |  |  |  | 
LCLC-103H | 0.304 | 0.35 | 0.328 | 0.345 | 0.331 | 0.627 | 0.772 | 0.576 | 0.765 | 0.816 |  |  |  |  | 0.813 | 0.799 | 0.835 | 0.839
NCI-H441 |  | 1.04 | 1 | 0.548 | 0.563 |  | 0.725 | 0.994 | 0.804 | 0.839 |  |  |  |  | 0.876 | 0.616 | 0.637 | 0.76
NCI-H2342 | 0.444 | 0.599 | 0.546 | 0.653 | 0.612 | 0.551 | 0.702 | 0.664 | 0.696 | 0.721 |  |  |  |  | 0.717 | 0.956 | 0.832 | 0.867
A549 |  | 0.18 | 0.191 | 0.173 | 0.151 |  |  |  |  |  | 1.05 | 0.922 | 0.943 | 1.03 |  |  |  | 
NCI-H1792 |  | 0.485 | 0.198 | 0.34 | 0.202 |  |  |  |  |  | 0.965 | 0.811 | 0.97 | 1.08 |  |  |  | 
NCI-H1563 | 0.622 | 0.667 | 0.653 | 0.752 | 0.748 |  |  |  |  |  | 0.939 | 0.991 | 1.02 | 0.691 |  |  |  | 
NCI-H1299 |  |  |  |  |  |  |  |  |  |  | 1.02 | 0.965 | 1.03 | 1.06 |  |  |  | 
NCI-H1648 |  |  |  |  |  | 0.459 | 0.429 |  | 0.499 | 0.421 |  |  |  |  | 0.242 | 0.271 | 0.397 | 0.364
NCI-H1703 |  |  |  |  |  |  |  |  |  |  | 1.2 | 0.931 | 0.647 | 1.21 |  |  |  | 
EBC-1 |  |  |  |  |  |  |  |  |  |  | 0.228 | 0.175 | 0.188 | 0.188 |  |  |  | 
